These results are taken from patent US5789182A, “System for assaying binding to a heparin-binding growth factor receptor” (The Children's Medical Center Corporation, priority 1993, dated 1998).

Data set [1] relates to mouse FGF receptor (mFR). Put plainly: High-affinity receptor binding of 125I-bFGF to CHO cells transfected with mFR. The note with it: for high-affinity binding of bFGF: no heparin. The source says:
The following cell lines were used: Balb/c fibroblasts; NIH 3T3 cells; CHO K1 cells (parental wild-type CHO cells, available as ATCC Accession No. CCL 61); clones 803 and 677, each of which is a clone of glucuronosyltransferase-deficient CHO K1 cells which lack cell-surface HSPG (in addition, 677 cells overexpress the closely related GAG, chondroitin sulfate); and clone 606, HS-N-sulfotransferase-deficient CHO K1-derived cells which express normal levels of (but undersulfated) cell surface HSPG. The mutant clones 803, 677, and 606 were obtained from Dr. Jeffrey D. Esko. Wild-type and mutant CHO cells were routinely grown in Hams F12 medium supplemented with 10% bovine fetal calf serum and L-glutamine (Sigma). For transfection of the murine FGF receptor, approximately 4×10^7 cells were trypsinized, washed in ice cold PBS, and incubated with 50 μg Mo/mFR/SV and 8 μg of CMV B-gal (source; used as a control for transfection efficiency) for 10 min at 4° C. Electroporation was done in a Bio-Rad Gene Pulser at 960 uF and 300V. Cells were then plated in 3 cm, 6-well plates, medium was replaced after 24 hours, and b-gal and binding assays were performed 36 to 48 hours after electroporation. Routinely, 30 to 40% of the cells stained positive for b-gal.
(§1) Subconfluent cultures of about 2×10^5 cells in a 30 mm dish (Costar) were precooled to 4° C., washed twice with cold Dulbecco's modified Eagle's medium supplemented with 25 mM HEPES pH 7.5 and 1% bovine serum albumin (DMEM/BSA), and incubated for 2 hours at 4° C. with ^125 I-bFGF (50 μCi/ mmole) in DMEM/BSA at different concentrations and in the presence or absence of heparin, as determined by the experimental protocol. The binding medium was then discarded and the cells washed twice with ice cold PBS and twice with DMEM/BSA. To determine the amount of low-affinity-bound bFGF, the cells were incubated twice for 5 minutes with cold PBS, pH 7.5, containing 1.6M NaCl (low-affinity-bound bFGF could be totally removed using salt concentrations of 0.8M and higher--data not shown), and the radioactivity of the salt extraction solution assayed in a gamma counter. High-affinity-bound bFGF was determined by a 2M NaCl (pH 4.0) extraction (Moscatelli, J. Cell Biol. 107:753-759, 1988). Nonspecific binding was determined by including a 100-fold excess of unlabeled bFGF. After binding in the presence or absence of heparin, bFGF-receptor crosslinking with disuccinimidyl suberate (DSS) was performed as described (Yayon and Klagsbrun, Proc. Natl. Acad. Sci. USA 87:5346-5350, 1990). Briefly, cells were washed twice with PBS and then incubated with 0.15 mM DSS in PBS for 15 minutes at room temperature. The cells were then washed with a solution of 50 mM Tris, pH 7.4, and 100 mM glycine; and scraped and lysed in a small volume of lysis buffer containing 150 mM NaCl, 20 mM Tris pH 8.0, 1mM MgCl2, 0.1 mM ZnCl2, 0.5% NP-40 (Sigma), 1 μg aprotinin (Sigma), 1 μg/ml leupeptin (Sigma), and 2 mM PMSF (phenylmethylsulfonyl fluoride; Sigma). The cell lysate, cleared by spinning down nuclei and cell debris, was boiled and then electrophoresed under reducing conditions on a 7% SDS polyacrylamide gel. After drying the gel, an autoradiogram was prepared using Kodak X-Omat AR film (Eastman Kodak Co., Rochester, N.Y.).

Data set [2] concerns high-affinity FGF receptors. As to the kind of experiment: High-affinity binding of 125I-bFGF to untransfected CHO cells. The note with it: untransfected wild-type and mutant CHO cells, compared to NIH-3T3 cells. How it is done: as §1, with “The cells were then washed with a solution of 50 mM Tris, pH 7.4, and 100 mM glycine; and scraped and lysed in a small volume of lysis buffer containing 150 mM NaCl, 20 mM Tris pH 8.0, 1mM MgCl2, 0.1 mM ZnCl2, 0.5% NP-40 (Sigma), 1 μg aprotinin (Sigma), 1 μg/ml leupeptin (Sigma), and 2 mM PMSF (phenylmethylsulfonyl fluoride; Sigma). The cell lysate, cleared by spinning down nuclei and cell debris, was boiled and then electrophoresed under reducing conditions on a 7% SDS polyacrylamide gel. After drying the gel, an autoradiogram was prepared using Kodak X-Omat AR film (Eastman Kodak Co., Rochester, N.Y.).” left out

Data set [3] concerns cell surface heparin sulfate proteoglycans (low-affinity binding sites). Put plainly: Low-affinity binding of 125I-bFGF to cells (1.6M NaCl extraction). How it is done:
as §1

Data set [4] relates to FRAP (mouse bFGF receptor/alkaline phosphatase fusion). As to the kind of experiment: Cell-free assay: 125I-bFGF binding to FRAP fusion protein, immunoprecipitated with AP-specific antibody. As to the method: Conditioned medium from FRAP-A2 was assayed for its ability to bind ^125 I-bFGF by combining in the presence or in the absence of a standard amount of heparin, an aliquot of conditioned medium with a standard amount of ^125 I-bFGF and a standard amount of monoclonal antibody specific for placental alkaline phosphatase (Medix Biotech, Foster City, Calif.) coupled to CNBr-activated sepharose beads (Pharmacia, Piscataway, N.J.). The mixture was incubated for 90 min at 4° C. and centrifuged to pellet the beads, which were then washed two times with 0.5 ml PBS and re-pelleted before determining the amount of bound ^125 I in a gamma counter. […] In the experiment illustrated in FIG. 13, varying amounts of FRAP-A2-conditioned medium were combined with heparin and ^125 I-bFGF, while in FIG. 14 the variable was the concentration of heparin in the assay mix.

Data set [5] relates to serum-starved Balb/c fibroblasts. As to the kind of experiment: Biological activity of iodinated bFGF. Format: cell-based. Particulars: ability to stimulate serum-starved Balb/c fibroblasts. The source says:
Recombinant human bFGF was labeled with ^125 I (17 Ci/mg) (New England Nuclear, Boston, MA) using Iodo-beads (Pierce Chemical Co., Rockford, IL) according to the manufacturer's instructions. […] When subjected to SDS-PAGE, ^125 I-bFGF migrated as a single band in the same position as unlabeled bFGF.

Data set [6] can be described thus: Degradation of bFGF in binding medium (gel electrophoresis, biological activity assay). Format: physicochemical. The note with it: aliquots at end of each experiment, with or without heparin. The source says:
The heparin-dependent high-affinityreceptor binding was similar to that reported for non-heparin-dependent binding of bFGF to cells which naturally express both HSPG and high-affinity receptors for bFGF (Neufeld et al., J. Biol. Chem. 261:5631-5637, 1985).

Data set [7] concerns mouse FGF receptor. Put plainly: Chemical crosslinking of 125I-bFGF to mFR-transfected CHO cells (DSS). Particulars: HS-deficient cells; unless heparin was included in the binding medium. How it is done:
as §1, with “The cells were then washed with a solution of 50 mM Tris, pH 7.4, and 100 mM glycine; and scraped and lysed in a small volume of lysis buffer containing 150 mM NaCl, 20 mM Tris pH 8.0, 1mM MgCl2, 0.1 mM ZnCl2, 0.5% NP-40 (Sigma), 1 μg aprotinin (Sigma), 1 μg/ml leupeptin (Sigma), and 2 mM PMSF (phenylmethylsulfonyl fluoride; Sigma). The cell lysate, cleared by spinning down nuclei and cell debris, was boiled and then electrophoresed under reducing conditions on a 7% SDS polyacrylamide gel. After drying the gel, an autoradiogram was prepared using Kodak X-Omat AR film (Eastman Kodak Co., Rochester, N.Y.).” left out

The test system of data set [8] is endothelial cell migration. The note with it: cited from earlier work.
In data set [9] the test system is angiogenesis. The note with it: associated with embryogenesis and inflammation; cited from earlier work.

Consider “bFGF: recombinant human basic fibroblast growth factor, gift from Takeda Inc.”, for which the “character of bFGF-receptor binding” value in [1] (HS-deficient cells, 40 ng/ml heparin) is listed as “specific, saturable, single class of high-affinity binding sites”. Besides, the “competition of heparin-dependent high-affinity receptor binding of 125I-bFGF” value in [1] (excess of unlabeled bFGF) was “specifically competed out”. Further, the “high-affinity binding of bFGF” value in [1] (mFR-transfected HS-deficient mutants) was “none of the similarly transfected HS-deficient mutants showed significant high-affinity binding”; in data set [1] (wild-type CHO K1 cells transfected with Mo/mFR/SV) it was “high levels of high-affinity binding”; in data set [2], “very little high-affinity binding”. Besides, in data set [3] (CHO clone 606 (undersulfated HSPG)), the “reduction of low-affinity binding of bFGF compared to wild-type CHO cells” value is “more than 50%”. Moreover, the “low-affinity binding of bFGF” value in [3] (clone 677 cells (undetectable HSPG, overexpress chondroitin sulfate)) is recorded as “Absence of low-affinity bFGF binding”; in data set [3] (clone 803 cells (5%-10% of wild-type HSPG)), “did not bind significant amounts”; in data set [3] (wild-type CHO K1 cells), “comparable to that found for NIH-3T3 cells”. Moreover, the “bound 125I with increasing concentrations of unlabelled FGF” value in data set [4] (competition assay (FIG. 12)) is recorded as “decrease”. The “binding of labelled bFGF to fusion protein” value in data set [4] (presence vs absence of heparin or a heparin-like molecule) is given as “in the presence but not in the absence”. Further, the “biological activity after iodination” value in [5] is listed as “Full biological activity”. For the same substance, the “degradation of bFGF in binding medium” value in [6] is recorded as “no signs of degradation”. Besides, in data set [7], the “crosslinking of bFGF to high-affinity receptors” value is listed as “could not be crosslinked”.

With Protamine, in [8], the “effect on heparin-stimulated endothelial cell migration” value is “inhibits the ability of heparin to stimulate endothelial cell migration”. Moreover, the effect on angiogenesis entry in [9] is reported as “inhibits angiogenesis”.

In the case of “^125 I-bFGF: recombinant human bFGF labeled with 125I using Iodo-beads [reference compound]”, the “125I-bFGF bound relative to untransfected cells” value in data set [1] (wild-type CHO cells transiently transfected with mFR) is recorded as 8-10 fold.
